# Source: patent publication EP4752152A1, “STEROID COMPOUND, AND PREPARATION METHOD THEREFOR AND USE THEREOF” (Cholesgen (Shanghai) Co.Ltd., priority 2023, dated 2025)
# Test system: SREBP pathway
# Experiment: SREBP luciferase reporter gene system (SRE-luciferase assay)
# Format: cell-based, human
# Settings: Homo sapiens, Huh-7, 16 h, Huh-7/SRE-luc cells, sterol-deficient medium, 0.01-10 µM
# Description: Huh-7/SRE-luc cells were incubated in sterol-deficient medium (5% lipoprotein deficient serum, 2 µM lovastatin, 10 µM mevalonic acid) with corresponding concentrations of compounds for 16 hours. The Huh-7/SRE-luc cells were human hepatoma cell line Huh-7 stably expressing LDLR promotor-luciferase and green fluorescent protein (GFP). These cells were obtained by transfecting Huh-7 with pLDLR-promotor-luciferase and pEGFP-N1 plasmids, followed by screening under G418 antibiotic selection pressure. The Huh-7 cells were purchased from ATCC, the pLDLR-promotor-luciferase plasmid was obtained by molecular cloning methods, and the pEGFP-N1 plasmid was purchased from Addgene.
# After compound treatment, the cells were lysed with lysis buffer (E397A, Promega). After the addition of luciferase substrate (E1500, Promega), the activity of SRE-driven luciferase was measured using a BioTek Synergy HTX microplate reader (including but not limited to this type of instrument). The fluorescence intensity of green fluorescent protein (EGFP) was also measured using the above BioTek microplate reader (including but not limited to this type of instrument) and served as an internal control. The ratio of SRE-driven luciferase activity divided by the fluorescence intensity of green fluorescent protein was used as an indicator of SREBP pathway activity. The test data for each test compound were analyzed using Prism software (with the DMSO-treated group as the reference to calculate the compound inhibition rate, fitted using the Prism log(inhibitor) vs. response--Variable slope (four-parameter) model, calculation formula: Y = Bottom + (Top - Bottom)/(1 + 10^((LogIC50 - X) × HillSlope))), to obtain the IC50 parameters of the compounds.
# Using the method described in 1.1, the inhibitory effect of the compounds of the present disclosure on the SREBP pathway was tested. The concentration gradient for each compound was designed as 0.01, 0.03, 0.1, 0.3, 1.0, 3.0, and 10 µM, with the vehicle DMSO as the control.
row,Compound,IC50 [µM]
1,"COc1ccnc(C[C@H](O)CCC[C@@H](C)[C@H]2CC[C@H]3[C@H]4[C@H](CC[C@]23C)[C@@]2(C)CC[C@H](O)[C@H](O)[C@@H]2CC4(F)F)c1 (stereo in doubt) [Compound 305, (1R,3aS,3bS,5aR,6R,7S,9aR,9bS,11aR)-4,4-difluoro-1-[(2R,6R)-6-hydroxy-7-(4-methoxypyridin-2-yl)heptan-2-yl]-9a,11a-dimethylhexadecahydro-1H-cyclopenta[1,2-a]phenanthrene-6,7-diol]",0.253
2,"C[C@H](CCCC(O)c1cccc2nn[nH]c12)[C@H]1CC[C@H]2[C@H]3[C@H](CC[C@]12C)[C@@]1(C)CC[C@H](O)[C@H](O)[C@@H]1CC3(F)F (stereo partly drawn) [Compound 282, (1R,3aS,3bS,5aR,6R,7 S,9aR,9bS,11aR)-4,4-Difluoro-1-[(2R)-6-hydroxy-6-(3H-benzo[d][1,2,3]triazol-4-yl)hexan-2-yl]-9a,11a-dimethylhexadecahydro-1H-cyclopenta[1,2-a]phenanthrene-6,7-diol]",0.389
3,"C[C@H](CCCC(O)c1c2ccccc2nn1C)[C@H]1CC[C@H]2[C@H]3[C@H](CC[C@]12C)[C@@]1(C)CC[C@H](O)[C@H](O)[C@@H]1CC3(F)F (stereo partly drawn) [Compound 325, (1R,3aS,3bS,5aR,6R,7 S,9aR,9bS,11aR)-4,4-Difluoro-1-[(2R)-6-hydroxy-6-(2-methylindazol-3-yl)hexan-2-yl]-9a,11a-dimethylhexadecahydro-1H-cyclopenta[1,2-a]phenanthrene-6,7-diol]",0.148
4,"C[C@H](CCCC1(O)CC1)[C@H]1CC[C@H]2[C@H]3[C@H](CC[C@]12C)[C@@]1(C)CC[C@H](O)[C@H](O)[C@@H]1CC3(F)F [Compound 93, (1R,3aS,3bS,5aR,6R,7S,9aR,9bS,11aR)-4,4-difluoro-1-[(2R)-5-(hydroxycyclopropyl)pentan-2-yl]-9a,11a-dimethylhexadecahydro-1H-cyclopenta[1,2-a]phenanthrene-6,7-diol]",0.613
5,"C[C@H](CCC[C@@H](O)c1ncc(F)cc1F)[C@H]1CC[C@H]2[C@H]3[C@H](CC[C@]12C)[C@@]1(C)CC[C@H](O)[C@H](O)[C@@H]1CC3(F)F (single isomer, unassigned) [Compound 280]",0.238
6,"COc1ccc(F)cc1[C@H](O)CCC[C@@H](C)[C@H]1CC[C@H]2[C@H]3[C@H](CC[C@]12C)[C@@]1(C)CC[C@H](O)[C@H](O)[C@@H]1CC3(F)F [Compound 169, (1R,3aS,3bS,5aR,6R,7S,9aR,9bS,11aR)-4,4-difluoro-1-[(2R,6R)-6-(5-fluoro-2-methoxyphenyl)-6-hydroxyhexan-2-yl]-9a,11a-dimethylhexadecahydro-1H-cyclopenta[1,2-a]phenanthrene-6,7-diol]",0.075
7,"C[C@H](CCC[C@@H](O)c1cccc2cnn(C)c12)[C@H]1CC[C@H]2C3=C(F)C[C@H]4[C@@H](O)[C@@H](O)CC[C@]4(C)[C@H]3CC[C@]12C (single isomer, unassigned) [Compound 246]",0.139
8,"COc1ccnc(F)c1C(O)CCC[C@@H](C)[C@H]1CC[C@H]2C3=C(F)C[C@H]4[C@@H](O)[C@@H](O)CC[C@]4(C)[C@H]3CC[C@]12C (stereo partly drawn) [Compound 150, (1R,3aR,5aR,6R,7S,9aR,9bR,11aR)-4-fluoro-1-[(2R)-6-(2-fluoro-4-methoxypyridin-3-yl)-6-hydroxyhexan-2-yl]-9a,11a-dimethyl-2,3,3a,5,5a,6,7,8,9,9a,9b,10,11,11a-tetradecahydro-1H-cyclopenta[1,2-a]phenanthrene-6,7-diol]",0.19

# Same assay, conditions: Huh-7/SRE-luc cells, sterol-deficient medium, 16 hours, 0.01-10 µM
row,Compound,IC50 [µM]
1,"C[C@H](CCCC(O)c1cncc2c1cnn2C)[C@H]1CC[C@H]2[C@H]3[C@H](CC[C@]12C)[C@@]1(C)CC[C@H](O)[C@H](O)[C@@H]1CC3(F)F (single isomer, unassigned) [Compound 288, (1R,3aS,3bS,5aR,6R,7S,9aR,9bS,11aR)-4,4-difluoro-1-[(2R,6R)-6-hydroxy-6-(1-methylpyrazolo[3,4-c]pyridin-4-yl)hexan-2-yl]-9a,11a-dimethylhexadecahydro-1H-cyclopenta[1,2-a]phenanthrene-6,7-diol or (1R,3aS,3bS,5aR,6R,7S,9aR,9bS,11aR)-4,4-difluoro-1-[(2R,6S)-6-hydroxy-6-(1-methylpyrazolo[3,4-c]pyridin-4-yl)hexan-2-yl]-9a,11a-dimethylhexadecahydro-1H-cyclopenta[1,2-a]phenanthrene-6,7-diol]",0.388
2,"COc1cncc(F)c1C(O)CCC[C@@H](C)[C@H]1CC[C@H]2[C@H]3[C@H](CC[C@]12C)[C@@]1(C)CC[C@H](O)[C@H](O)[C@@H]1CC3(F)F (single isomer, unassigned) [Compound 252, (1R,3aS,3bS,5aR,6R,7S,9aR,9bS,11aR)-4,4-difluoro-1-[(2R,6R)-6-(3-fluoro-5-methoxypyridin-4-yl)-6-hydroxyhexan-2-yl]-9a,11a-dimethylhexadecahydro-1H-cyclopenta[1,2-a]phenanthrene-6,7-diol or (1R,3aS,3bS,5aR,6R,7S,9aR,9bS,11aR)-4,4-difluoro-1-[(2R,6S)-6-(3-fluoro-5-methoxypyridin-4-yl)-6-hydroxyhexan-2-yl]-9a,11a-dimethylhexadecahydro-1H-cyclopenta[1,2-a]phenanthrene-6,7-diol]",0.031
3,"C[C@H](CCCC(O)c1cccc2cnn(C)c12)[C@H]1CC[C@H]2[C@H]3[C@H](CC[C@]12C)[C@@]1(C)CC[C@H](O)[C@H](O)[C@@H]1CC3(F)F (single isomer, unassigned) [Compound 243, (1R,3aS,3bS,5aR,6R,7S,9aR,9bS,11aR)-4,4-difluoro-1-[(2R,6S)-6-hydroxy-6-(1-methylindazol-7-yl)hexan-2-yl]-9a,11a-dimethylhexadecahydro-1H-cyclopenta[1,2-a]phenanthrene-6,7-diol or (1R,3aS,3bS,5aR,6R,7S,9aR,9bS,11aR)-4,4-difluoro-1-[(2R,6R)-6-hydroxy-6-(1-methylindazol-7-yl)hexan-2-yl]-9a,11a-dimethylhexadecahydro-1H-cyclopenta[1,2-a]phenanthrene-6,7-diol]",0.134
4,"COc1nc(C(O)CCC[C@@H](C)[C@H]2CC[C@H]3[C@H]4[C@H](CC[C@]23C)[C@@]2(C)CC[C@H](O)[C@H](O)[C@@H]2CC4(F)F)cs1 (single isomer, unassigned) [Compound 221, (1R,3aS,3bS,5aR,6R,7S,9aR,9bS,11aR)-4,4-difluoro-1-[(2R,6S)-6-hydroxy-6-(2-methoxy-1,3-thiazol-4-yl)hexan-2-yl]-9a,11a-dimethylhexadecahydro-1H-cyclopenta[1,2-a]phenanthrene-6,7-diol or (1R,3aS,3bS,5aR,6R,7S,9aR,9bS,11aR)-4,4-difluoro-1-[(2R,6R)-6-hydroxy-6-(2-methoxy-1,3-thiazol-4-yl)hexan-2-yl]-9a,11a-dimethylhexadecahydro-1H-cyclopenta[1,2-a]phenanthrene-6,7-diol]",0.183
